# Test: Plasma pharmacokinetics after topical administration, LC-MS/MS
# Type: in vivo, human
# Description: KX-01 was tested in adult subjects with actinic keratosis of the dorsal forearm (Example 1) and actinic keratosis on the face or scalp (Examples 2a and 2b). In Example 1, the plasma pharmacokinetics (PK) of KX-01 following topical administration was evaluated by collection of plasma on days 1 and 3 of the 3-day regimens and on days 1 and 5 of the 5-day regimens (Table 12). In Examples 2a and 2b, plasma samples were collected on days 1 and 5 of Cohort 1 (Table 13). Plasma samples at similar time points were collected on days 1 and 3 of Cohort 2. KX-01 was measured in human plasma using a validated LC-MS/MS assay with a lower limit of quantification (LLOQ) of 0.1 ng/mL.
smiles,measurement,setting,value
O=C(Cc1ccc(-c2ccc(OCCN3CCOCC3)cc2)cn1)NCc1ccccc1 [KX-01],"Plasma concentration, back-up sample","Day 5, 0.5 hours post-dose, back-up of the 23 ng/mL sample",BLQ
same,"Plasma concentration, aberrant primary sample","Day 5, 0.5 hours post-dose, likely cross contamination",23 ng/mL
same,"Plasma concentration, back-up sample","Day 5, 1 hour post-dose, back-up of the 44 ng/mL sample",0.351 ng/mL
same,"Plasma concentration, aberrant primary sample","Day 5, 1 hour post-dose, likely cross contamination",44 ng/mL
same,Plasma samples above the limit of quantification,"KX01-AK-002, after 1 day of treatment, of 336 samples",15
same,Measurable plasma concentrations,"KX01-AK-002, all except three aberrant samples",below 0.7 ng/mL
same,Subjects with measurable plasma concentrations at 4 hours post-dose on Day 5,KX01-AK-002 Cohort 1,42 out of 84
same,Subjects with quantifiable concentrations prior to the dose on Day 5,KX01-AK-002 Cohort 1,8 of 84
same,"Plasma concentration, back-up sample",back-up of the third aberrant sample,30 ng/mL
same,Plasma concentrations below the level of quantification (BLQ),both studies,75%
same,concentration at 5 days,"human, plasma, up to 5 consecutive days of topical treatment, read-out: Systemic exposure (plasma concentration)",< 1 ng/mL
same,"Apparent plasma concentration, aberrant sample","third aberrant sample, likely cross contamination","above 12,500 ng/mL"
same,Systemic exposure (plasma concentration),up to 5 consecutive days of topical treatment,< 1 ng/mL

# From patent US10617693B2, “Methods of treating and/or preventing actinic keratosis” (Athenex, Inc., priority 2017, dated 2020)
